The target in the first assay is influenza PA endonuclease (Influenza A virus, UniProt C3W5S0). The assay can be described thus: biochemical. Set-up: species or system Pandemic H1N1 influenza A.
Conditions: not given
Compound `CNC(=O)c1occc(=O)c1O` [A11] showed an IC50 of 4100 nM. In other words, the single-digit micromolar range.
With `CNC(=O)c1[nH]ccc(=O)c1O` [B4], the midpoint of inhibition, the IC50, lay at 13000 nM.
As to `Cc1occ(O)c(=O)c1C(=O)NCCc1ccccc1` [Compound 13, 5-Hydroxy-2-methyl-4-oxo-N-phenethyl-4H-pyran-3-carboxamide], the IC50 worked out at 11300 ± 1200 nM.
Consider `COc1cccc(CNC(=O)c2c(C)occ(O)c2=O)c1` [Compound 18, 5-Hydroxy-N-(3-methoxybenzyl)-2-methyl-4-oxo-4H-pyran-3-carboxamide], for which the IC50 came out at 22100 ± 600 nM.
In turn, `O=c1cc(CNCc2ccccc2)occ1O` [Compound 26, 2-((Benzylamino)methyl)-5-hydroxy-4H-pyran-4-one] had an IC50 of 2700 ± 400 nM.
`CS(=O)(=O)NCc1cc(=O)c(O)co1` [Compound 30] yielded an IC50 of 4800 ± 700 nM.
Take `CN(Cc1cc(=O)c(O)co1)c1ccc(F)cc1` [Compound 39, 2-(((4-Fluorophenyl)(methyl)amino)methyl)-5-hydroxy-4H-pyran-4-one]: the midpoint of inhibition, the IC50, lay at 1800 ± 200 nM. This IC50 is about 2.7-fold lower than that of the compound before.
As for `CN(Cc1cc(=O)c(O)co1)c1cccc(F)c1` [Compound 40, 2-(((3-Fluorophenyl)(methyl)amino)methyl)-5-hydroxy-4H-pyran-4-one], the IC50 was determined as 3200 ± 100 nM. Compared with the last compound, the IC50 is about 1.8-fold higher.
Compound `CN(Cc1cc(=O)c(O)co1)c1ccncc1` [Compound 41, 5-Hydroxy-2-((methyl(pyridin-4-yl)amino)methyl)-4H-pyran-4-one] yielded an IC50 of over 100000 nM.
`Cc1c(O)c(=O)ccn1-c1ccccc1` [Compound 45, 3-Hydroxy-2-methyl-1-phenylpyridin-4(1H)-one] had an IC50 of 18000 ± 2000 nM.
Still for that read-out and setting: then `Cc1c(O)c(=O)ccn1C1CCCCC1` [Compound 48, 1-Cyclohexyl-3-hydroxy-2-methylpyridin-4(1H)-one], with 14000 ± 3000 nM.
For `Cc1cc(=O)c(O)cn1C1CCOCC1` [Compound 51], the IC50 was 730 ± 70 nM.
In turn, `COc1cc(C)c(C(=O)O)cc(O)c1=O` [Compound 105] gave an IC50 of 180 nM and an LE of 0.66.
The compound `O=C(O)c1ccc(O)c(O)c1` [Compound 107] returned a half-inhibitory concentration (IC50) of 220 nM and an LE of 0.83.
In the case of `CC(C)c1cccc(=O)c(O)c1` [E4], the IC50 stood at 11000 nM.
Same read-out and setting: for `CCOC(=O)c1c(C)n(-c2ccccc2)cc(O)c1=O` [compound 67, Ethyl 5-hydroxy-2-methyl-4-oxo-1-phenyl-1,4-dihydropyridine-3-carboxylate] the value was 5300 ± 400 nM.
With `CCOC(=O)c1c(C)n(-c2ccc(Oc3ccccc3)cc2)cc(O)c1=O` [compound 68, Ethyl 5-hydroxy-2-methyl-4-oxo-1-(4-phenoxyphenyl)-, 4-dihydropyridine-3-carboxylate], half-maximal inhibition (IC50) was put at 5200 ± 800 nM.
`O=c1cc(Br)[nH]c(-c2nnn[nH]2)c1O` [compound 133, 6-Bromo-3-hydroxy-2-(1H-tetrazol-5-yl)pyridin-4(1H)-one] returned an IC50 of 63 nM. Compared with the last compound, the IC50 is about 83-fold lower.
Turning to `O=C(O)c1[nH]c(-c2ccccc2)cc(=O)c1O` [compound 142, 3-Hydroxy-4-oxo-6-phenyl-1,4-dihydropyridine-2-carboxylic acid], half-maximal inhibition (IC50) was put at 5.6 nM.
On the same count and under the same terms, then `O=C(O)c1[nH]c(-c2ccc(Oc3ccccc3)cc2)cc(=O)c1O` [compound 143, 3-Hydroxy-4-oxo-6-(4-phenoxyphenyl)-1,4-dihydropyridine-2-carboxylic acid], with 22 nM; and `O=C(O)c1ccc(-c2cc(=O)c(O)c(C(=O)O)[nH]2)cc1` [compound 144, 6-(4-carboxyphenyl)-3-hydroxy-4-oxo-1,4-dihydropyridine-2-carboxylic acid], with 1.6 nM; and `O=C(O)c1cccc(-c2cc(=O)c(O)c(C(=O)O)[nH]2)c1` [compound 145, 6-(3-carboxyphenyl)-3-hydroxy-4-oxo-1,4-dihydropyridine-2-carboxylic acid], with 2 nM.
The same measure, in the same setting: for `Cc1cccc(-c2cc(=O)c(O)c(C(=O)O)[nH]2)c1` [compound 146, 3-hydroxy-4-oxo-6-(m-tolyl)-1,4-dihydropyridine-2-carboxylic acid] the value was 4.8 nM; for `O=C(O)c1[nH]c(-c2ccc(-c3nnn[nH]3)cc2)cc(=O)c1O` [compound 148, 6-(4-(1H-tetrazol-5-yl)phenyl)-3-hydroxy-4-oxo-1,4-dihydropyridine-2-carboxylic acid], 1.9 nM; for `O=c1cc[nH]c(-c2ncco2)c1O` [compound 151], 71 nM.
As for `O=c1cccccc1O` [compound 201], half-maximal inhibition (IC50) required 8800 nM.
In turn, `Cc1cc(O)c(=O)c(O)cc1-c1ccccc1` [compound 213, 2,7-Dihydroxy-4-methyl-5-phenylcyclohepta-2,4,6-trien-1-one] had an IC50 of 5 nM.

The assay is the same for the next values; noted with them: IC50 value.
On to `O=C(O)c1[nH]c(Br)cc(=O)c1O` [compound 131, 6-Bromo-3-hydroxy-4-oxo-1,4-dihydropyridine-2-carboxylic acid], for which the IC50 was 25 nM.

The values are drawn from patent US10889556B2, “Compositions and methods for inhibiting influenza RNA polymerase PA endonuclease” (The Regents of the University of California, priority 2016, dated 2021).
